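Grown in 96-well plates, cells were treated for 48 hours with each compound at five concentrations. Insufficient inhibition: endpoint recorded as highest concentration tested. At the GI50, growth is halved.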 Calls of active or inactive are those of the source. Rule as the data show it: active = GI50 up to about 1.1 µM and inactive = higher.
How the values were obtained:
Experiment in all cases: NCI tumour cell line growth inhibition, 48 h
[1] = tested on: IGROV-1
[2] = tested on: MDA-MB-435
[3] = tested on: SF-268
[4] = tested on: SN12C
[5] = tested on: HL-60
[6] = tested on: ACHN
[7] = tested on: SNB-19
[8] = tested on: U-251
[9] = tested on: K562
[10] = tested on: MDA-MB-231
[11] = tested on: DU-145
[12] = tested on: NCI-H23
[13] = tested on: SK-MEL-2
[14] = tested on: SW-620
[15] = tested on: UO-31
[16] = tested on: CCRF-CEM
[17] = tested on: HCC 2998
[18] = tested on: LOX IMVI
[19] = tested on: Malme-3M
[20] = tested on: SNB-75

| SMILES | GI50 [1] | GI50 [2] | GI50 [3] | GI50 [4] | GI50 [5] | GI50 [6] | GI50 [7] | GI50 [8] | GI50 [9] | GI50 [10] | GI50 [11] | GI50 [12] | GI50 [13] | GI50 [14] | GI50 [15] | GI50 [16] | GI50 [17] | GI50 [18] | GI50 [19] | GI50 [20] |
| --- | --- | --- | --- | --- | --- | --- | --- | --- | --- | --- | --- | --- | --- | --- | --- | --- | --- | --- | --- | --- |
| CCOC(=O)c1c(NC(=O)c2ccc(Br)cc2)sc2c1CCCC2 | 97.1 µM (inactive) | > 100 µM (inactive) | > 100 µM (inactive) | > 100 µM (inactive) | > 100 µM (inactive) | > 100 µM (inactive) | > 100 µM (inactive) | > 100 µM (inactive) | > 100 µM (inactive) | > 100 µM (inactive) | > 100 µM (inactive) | > 100 µM (inactive) | > 100 µM (inactive) | > 100 µM (inactive) | > 100 µM (inactive) | > 100 µM (inactive) | – | – | – | – |
| CCC1(O)CC2CC(=O)OC2C1O (centres undefined) | > 100 µM (inactive) | > 100 µM (inactive) | > 100 µM (inactive) | – | – | > 100 µM (inactive) | > 100 µM (inactive) | > 100 µM (inactive) | > 100 µM (inactive) | > 100 µM (inactive) | > 100 µM (inactive) | > 100 µM (inactive) | > 100 µM (inactive) | > 100 µM (inactive) | > 100 µM (inactive) | 0.423 µM (active) | > 100 µM (inactive) | > 100 µM (inactive) | > 100 µM (inactive) | > 100 µM (inactive) |
| O=C1c2ccccc2-n2c1nc1ccc(Cl)cc1c2=O | 78.2 µM (inactive) | 15.6 µM (inactive) | – | > 100 µM (inactive) | – | > 100 µM (inactive) | > 100 µM (inactive) | 34.5 µM (inactive) | 14.3 µM (inactive) | 62.1 µM (inactive) | > 100 µM (inactive) | 66.2 µM (inactive) | 89.9 µM (inactive) | > 100 µM (inactive) | 59.4 µM (inactive) | 3.2 µM (inactive) | > 100 µM (inactive) | > 100 µM (inactive) | – | 27.5 µM (inactive) |
| CC1(C)S[C@H](CN)N[C@H]1C(=O)OC(c1ccccc1)c1ccccc1 | 37.4 µM (inactive) | 30.3 µM (inactive) | 88.1 µM (inactive) | 32.4 µM (inactive) | 16.7 µM (inactive) | 84.3 µM (inactive) | – | 33 µM (inactive) | 22.9 µM (inactive) | 35.2 µM (inactive) | > 100 µM (inactive) | 48.3 µM (inactive) | 27.7 µM (inactive) | 43.6 µM (inactive) | 22.3 µM (inactive) | – | 18.6 µM (inactive) | 17.4 µM (inactive) | 31.4 µM (inactive) | 84.3 µM (inactive) |
| CCCC(=O)Nc1ccc2c(c1)CN1C(=O)c3ccccc3C1=N2 | > 100 µM (inactive) | > 100 µM (inactive) | > 100 µM (inactive) | > 100 µM (inactive) | > 100 µM (inactive) | > 100 µM (inactive) | > 100 µM (inactive) | > 100 µM (inactive) | – | > 100 µM (inactive) | > 100 µM (inactive) | > 100 µM (inactive) | > 100 µM (inactive) | > 100 µM (inactive) | > 100 µM (inactive) | – | > 100 µM (inactive) | > 100 µM (inactive) | > 100 µM (inactive) | 49.5 µM (inactive) |
| C/C(=C\c1ccccc1)C(=O)NCc1ccc(C(=O)NCCC(C)C)cc1 | 68.7 µM (inactive) | > 100 µM (inactive) | 42.6 µM (inactive) | 52.7 µM (inactive) | – | 55.6 µM (inactive) | 36.1 µM (inactive) | 86.7 µM (inactive) | > 100 µM (inactive) | 85.3 µM (inactive) | > 100 µM (inactive) | 88.3 µM (inactive) | > 100 µM (inactive) | > 100 µM (inactive) | 37.8 µM (inactive) | > 100 µM (inactive) | > 100 µM (inactive) | > 100 µM (inactive) | > 100 µM (inactive) | 21.9 µM (inactive) |
| COc1ccc(N2C(=O)C3ON(C(C(N)=O)c4ccccc4)C(c4ccc(-c5ccccc5)cc4)C3C2=O)cc1 (centres undefined) | 48.8 µM (inactive) | > 50 µM (inactive) | > 50 µM (inactive) | > 50 µM (inactive) | > 50 µM (inactive) | > 50 µM (inactive) | > 50 µM (inactive) | > 50 µM (inactive) | > 50 µM (inactive) | > 50 µM (inactive) | > 50 µM (inactive) | > 50 µM (inactive) | > 50 µM (inactive) | > 50 µM (inactive) | > 50 µM (inactive) | 10.2 µM (inactive) | – | 36.5 µM (inactive) | 31.8 µM (inactive) | > 50 µM (inactive) |
| CCOC(=O)C(C)c1nc2cc(N3CCN(C)CC3)c(F)cc2[nH]c1=O (centres undefined) | > 100 µM (inactive) | > 100 µM (inactive) | > 100 µM (inactive) | > 100 µM (inactive) | > 100 µM (inactive) | > 100 µM (inactive) | > 100 µM (inactive) | > 100 µM (inactive) | > 100 µM (inactive) | > 100 µM (inactive) | > 100 µM (inactive) | > 100 µM (inactive) | > 100 µM (inactive) | > 100 µM (inactive) | > 100 µM (inactive) | > 100 µM (inactive) | – | – | 28.9 µM (inactive) | > 100 µM (inactive) |
| O=C(N/N=C/c1ccc(Cl)cc1)c1ccccc1Nc1ccccc1C(=O)N/N=C/c1ccc(Cl)cc1 | > 100 µM (inactive) | > 100 µM (inactive) | > 100 µM (inactive) | > 100 µM (inactive) | – | > 100 µM (inactive) | > 100 µM (inactive) | > 100 µM (inactive) | > 100 µM (inactive) | 91.6 µM (inactive) | > 100 µM (inactive) | > 100 µM (inactive) | > 100 µM (inactive) | > 100 µM (inactive) | > 100 µM (inactive) | > 100 µM (inactive) | > 100 µM (inactive) | > 100 µM (inactive) | 64.4 µM (inactive) | > 100 µM (inactive) |
| CCOC(=O)Cn1nc2ccc(Nc3c(C)[n+]([O-])c4cc(F)c(OCC)cc4[n+]3[O-])cc2n1 | > 100 µM (inactive) | > 100 µM (inactive) | 50.9 µM (inactive) | – | > 100 µM (inactive) | 22.4 µM (inactive) | – | 37.5 µM (inactive) | > 100 µM (inactive) | 46.8 µM (inactive) | > 100 µM (inactive) | > 100 µM (inactive) | 16.8 µM (inactive) | > 100 µM (inactive) | > 100 µM (inactive) | > 100 µM (inactive) | – | > 100 µM (inactive) | – | – |
| CC(C)(C)C1=NC(=P(c2ccccc2)(c2ccccc2)c2ccccc2)C(=O)O1 | > 100 µM (inactive) | > 100 µM (inactive) | > 100 µM (inactive) | > 100 µM (inactive) | > 100 µM (inactive) | > 100 µM (inactive) | > 100 µM (inactive) | > 100 µM (inactive) | > 100 µM (inactive) | > 100 µM (inactive) | > 100 µM (inactive) | > 100 µM (inactive) | > 100 µM (inactive) | > 100 µM (inactive) | > 100 µM (inactive) | > 100 µM (inactive) | – | > 100 µM (inactive) | 98.4 µM (inactive) | 6.21 µM (inactive) |
| CC(=C/C=C/C=C(C)\C=C\C=C(\C)C(=O)O)/C=C/C=C(/C)C(=O)O | > 100 µM (inactive) | > 100 µM (inactive) | > 100 µM (inactive) | > 100 µM (inactive) | 25.5 µM (inactive) | > 100 µM (inactive) | – | > 100 µM (inactive) | > 100 µM (inactive) | > 100 µM (inactive) | > 100 µM (inactive) | > 100 µM (inactive) | > 100 µM (inactive) | > 100 µM (inactive) | > 100 µM (inactive) | > 100 µM (inactive) | – | > 100 µM (inactive) | > 100 µM (inactive) | > 100 µM (inactive) |
| CCCCCCCC(CC(=O)O)OC(=O)CC(CCCCCCC)OC1OC(C)C(O)C(O)C1OC1OC(C)C(O)C(O)C1O (centres undefined) | 62.2 µM (inactive) | > 100 µM (inactive) | > 100 µM (inactive) | > 100 µM (inactive) | – | > 100 µM (inactive) | > 100 µM (inactive) | > 100 µM (inactive) | 72.1 µM (inactive) | > 100 µM (inactive) | > 100 µM (inactive) | > 100 µM (inactive) | > 100 µM (inactive) | > 100 µM (inactive) | > 100 µM (inactive) | 79.4 µM (inactive) | > 100 µM (inactive) | > 100 µM (inactive) | 43.2 µM (inactive) | > 100 µM (inactive) |
| O=C(c1cccnc1)N1N=C(c2ccc(Cl)cc2)CC1(O)c1cc(F)c(Cl)cc1Cl (centres undefined) | 1.65 µM (inactive) | 15.9 µM (inactive) | 19.2 µM (inactive) | 14.1 µM (inactive) | 15.1 µM (inactive) | 18.8 µM (inactive) | 41.3 µM (inactive) | 14.3 µM (inactive) | 16.6 µM (inactive) | 15.1 µM (inactive) | 16.9 µM (inactive) | 18.5 µM (inactive) | 22 µM (inactive) | 22.2 µM (inactive) | 15.9 µM (inactive) | 13.3 µM (inactive) | – | 15.1 µM (inactive) | 33.3 µM (inactive) | 5.7 µM (inactive) |
| CC1=CC(=O)/C(=C/NC(=O)NN)C(=O)O1 | 58.5 µM (inactive) | > 100 µM (inactive) | > 100 µM (inactive) | > 100 µM (inactive) | – | > 100 µM (inactive) | > 100 µM (inactive) | > 100 µM (inactive) | – | > 100 µM (inactive) | > 100 µM (inactive) | > 100 µM (inactive) | > 100 µM (inactive) | > 100 µM (inactive) | > 100 µM (inactive) | > 100 µM (inactive) | > 100 µM (inactive) | > 100 µM (inactive) | – | 45.4 µM (inactive) |

From ChEMBL document CHEMBL1201862, “PubChem BioAssay data set” (2004)
